In PubChem BioAssay (NCI):
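Step 1: Grow cells in 96-well plates. Step 2: Expose to compound for 48 hours at 5 concentrations. Step 3: Interpolate endpoints linearly; if unreached, use highest concentration. GI50 is the concentration that inhibits growth by half. TGI denotes the concentration required for complete inhibition of growth.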

Legend:
Assay in all cases: NCI-60 cell line screen, 48 h
NCI-H522 lung = test system: NCI-H522 lung
MALME-3M melanoma = test system: MALME-3M melanoma
IGROV1 ovarian = test system: IGROV1 ovarian
RXF 393 renal = test system: RXF 393 renal
MCF7 breast = test system: MCF7 breast
MDA-MB-231 breast = test system: MDA-MB-231 breast
TK-10 renal = test system: TK-10 renal
K-562 leukemia = test system: K-562 leukemia
786-0 renal = test system: 786-0 renal
RPMI-8226 leukemia = test system: RPMI-8226 leukemia

SMILES	GI50 (NCI-H522 lung) [µM]	TGI (NCI-H522 lung) [µM]	GI50 (MALME-3M melanoma) [µM]	TGI (MALME-3M melanoma) [µM]	GI50 (IGROV1 ovarian) [µM]	TGI (IGROV1 ovarian) [µM]	GI50 (RXF 393 renal) [µM]	TGI (RXF 393 renal) [µM]	GI50 (MCF7 breast) [µM]	TGI (MCF7 breast) [µM]	GI50 (MDA-MB-231 breast) [µM]	TGI (MDA-MB-231 breast) [µM]	GI50 (TK-10 renal) [µM]	TGI (TK-10 renal) [µM]	GI50 (K-562 leukemia) [µM]	TGI (K-562 leukemia) [µM]	GI50 (786-0 renal) [µM]	TGI (786-0 renal) [µM]	GI50 (RPMI-8226 leukemia) [µM]	TGI (RPMI-8226 leukemia) [µM]
COc1ccc(-c2cc(-c3cccc(NS(C)(=O)=O)c3)nc(N)c2C#N)cc1	0.0164	1.25	0.0417	21.8	0.119	> 34.8	0.0506	0.44	0.348	25.3	0.335	5.14	0.278	> 47.5	0.0541	> 100	0.283	13.7	0.286	8.23
CCOc1nccc2c1nc(-c1nonc1N)n2CC	24.7	> 25	> 25	> 25	> 25	> 25	> 25	> 25	> 25	> 25	> 25	> 25	> 25	> 25	> 25	> 25	> 25	> 25	> 25	> 25
CSc1ccc(SC2c3ccc(C)cc3Oc3nc(N)c(C#N)c(N)c32)cc1 (stereo not drawn)	1.7	3.13	1.54	3.01	1.28	3.05	1.71	3.12	1.84	4.34	1.6	3	1.96	3.37	2.96	9.91	1.68	3.07	2.43	6.96
O=C(CCSc1ccnc2c(C(F)(F)F)cccc12)N/N=C/c1cc(Cl)c(Cl)cc1Cl	31.6	> 100	50.1	> 100	18.8	40.7	20.9	52.3	22.9	44	16.8	32.6	33.6	72.4	39.6	> 100	20.3	35.1	19	52.7
COc1cc(NC(=O)NCc2ccco2)ccc1-c1ccc(NC(=O)NCc2ccco2)cc1OC	2	5.33	1.65	5.56			1.88	6.22	1.49	4.68	1.41	3.98	1.01	9.87	0.773	> 100	2.35	11.4	> 100	> 100
NCCCN1CCN(CCCNc2nc3ccccc3c3[nH]c4ccccc4c23)CC1	0.242	1.31	2.3	4.96	0.638	4.38	0.429	1.31	0.181	1.33	0.456	1.72	0.81	11.1	0.0715	43.1	0.421	2.94	0.241	0.817
